US9593149B2, “Amylin and calcitonin receptor agonist” (Novo Nordisk A/S, priority 2014, dated 2017)
≈ marks a conversion by molar mass, not a printed value. Numbered stars: 1 amine (or outer) side, 2 acyl side, 3 side chain; on linkers, the order of the positions; unused ones are H or OH. Side chains are listed from the residue outwards. Peptide text beside a SMILES is read from it. * marks the point of attachment. C20 diacid = O=C(O)CCCCCCCCCCCCCCCCCCC(=O)*; C18 diacid = O=C(O)CCCCCCCCCCCCCCCCC(=O)*; γGlu = O=C(O)[C@H](CCC(=O)[*:2])N[*:1]

Key:
[1] = molecular target: T1, human amylin receptor (human calcitonin receptor + human RAMP3), BHK tk'ts 13 cells (Homo sapiens, UniProt O60896+P30988); assay: Assay (Va) binding to the human amylin receptor (whole cell); conditions: read-out: hAmylin-R binding IC50
T1 construct: expressed in transfected cells; host or cells: BHK tk'ts 13
Protocol: The day before the assay the cells were Seeded into Poly-D-Lysin coated 384W Opaque White, BD BioCoat plates (10000 cells/well) and Incubated overnight at 37° C., 5% CO2, 95% humidity.

[2] = Assay (IV) determination of solubility; assay type: physicochemical
Protocol: Assay (IV)—Determination of Solubility
The mimylin peptide was dissolved in water at ˜500 nmol/ml and mixed 1:1 with a series of buffers (100 mM glycylglycine pH 3.0, 100 mM glycylglycine pH 4.0, 100 mM glycylglycine pH 5.0, 100 mM bistrispropane pH 6.0, 100 mM bistrispropane pH 6.5, 100 mM bistrispropane pH 7.0, 100 mM bistrispropane pH 7.5, 100 mM bistrispropane pH 8.0).

[3] = molecular target: T2, human amylin 3(a) receptor (human calcitonin receptor + RAMP-3), BHK570 cells (Homo sapiens, UniProt O60896+P30988); assay: Assay (II)b functional CRE-luciferase assay without albumin, human amylin receptor; assay type: cell-based; conditions: Tested without HSA; read-out: hAmylin-R funct. EC50
T2 construct: host or cells: BHK570
Outline: (§1)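 BHK570 cells stably expressing human calcitonin receptor with CRE-luciferase reporter, plus RAMP-3 for the amylin 3(a) line. Cells stimulated 3 hours at 37 °C in albumin-free assay medium (0.1% ovalbumin, 10 mM Hepes pH 7.4); cAMP-driven luciferase read by luminescence.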

[4] = molecular target: T2, human amylin 3(a) receptor (human calcitonin receptor + RAMP-3), BHK570 cells; assay: Assay (II)a functional CRE-luciferase assay with albumin, human amylin receptor; assay type: cell-based; conditions: Tested with HSA; read-out: hAmylin-R funct. EC50
From the text: (§2) Assay(II)a—Human Calcitonin and Amylin Receptor Assay
(§3) 1. Luciferase Assay Outline
(§4) Activation of calcitonin and amylin (co-expression of calcitonin receptor and receptor activity modifying proteins (RAMP)) receptors lead to increased intracellular concentrations of cAMP. Consequently, transcription is activated by promoters containing multiple copies of the cAMP response element (CRE). It is thus possible to measure amylin activity by the use of a CRE luciferase reporter gene introduced into BHK cells also expressing calcitonin or amylin receptors.
(§5) 2. Construction of Calcitonin (a)—and Amylin 3(a)—Receptor/CRE-Luc Cell Line.
(§6) A BHK570 cell line was stably transfected with the human calcitonin receptor and a CRE-responsive luciferase reporter gene. The cell line was further transfected with RAMP-3, using standard methods. This turns the calcitonin receptor into an amylin 3(a) receptor. Methotrexate, Neomycin, and Hygromycin are selection markers for luciferase, the calcitonin receptor, and RAMP-3, respectively.
(§7) To perform activity assays, BHK calcitonin (a) receptor- or amylin 3(a)-receptor/CRE-luc cells were seeded in white 96 well culture plates at a density of about 20.000 cells/well. […] After incubation overnight at 37° C. and 5% CO2, the growth medium was replaced by 50 μl/well assay medium (DMEM (without phenol red), Glutamax™, 10% FBS, and 10 mM Hepes, pH 7.4). Further, 50 μl/well of standard or sample in assay buffer were added.
(§8) After 3 hours incubation at 37° C. and 5% CO2, the assay medium with standard or sample were removed and replaced by 100 μl/well PBS. Further, 100 μl/well LucLite™ was added. The plates were sealed and incubated at room temperature for 30 minutes. Finally, luminescence was tested on a TopCounter (Packard) in SPC (single photon counting) mode.

[5] = molecular target: T3, human calcitonin (a) receptor, BHK570 cells (Homo sapiens, UniProt P30988); assay: Assay (II)a functional CRE-luciferase assay with albumin, human calcitonin receptor; assay type: cell-based; conditions: Tested with HSA; read-out: hCTR funct. EC50
T3 construct: host or cells: BHK570
T3 sequence (P30988 25-474): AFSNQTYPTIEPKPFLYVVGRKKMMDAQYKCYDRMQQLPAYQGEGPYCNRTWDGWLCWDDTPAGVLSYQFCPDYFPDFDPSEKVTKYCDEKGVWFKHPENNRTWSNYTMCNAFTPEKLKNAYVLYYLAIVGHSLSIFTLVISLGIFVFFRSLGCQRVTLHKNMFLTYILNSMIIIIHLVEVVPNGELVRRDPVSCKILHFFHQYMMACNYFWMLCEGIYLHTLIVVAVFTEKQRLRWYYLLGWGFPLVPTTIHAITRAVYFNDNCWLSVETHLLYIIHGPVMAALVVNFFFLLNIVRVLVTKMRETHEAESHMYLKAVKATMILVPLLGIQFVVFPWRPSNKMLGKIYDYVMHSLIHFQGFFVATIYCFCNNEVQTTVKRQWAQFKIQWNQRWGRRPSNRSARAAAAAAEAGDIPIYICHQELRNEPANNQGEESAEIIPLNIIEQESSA
From the text: as §2, §3, §4, §5, §6, §7, §8

[6] = molecular target: T3, human calcitonin (a) receptor, BHK570 cells; assay: Assay (II)b functional CRE-luciferase assay without albumin, human calcitonin receptor; assay type: cell-based; conditions: Tested without HSA; read-out: hCTR funct. EC50
Outline: as §1

rat calcitonin receptor = molecular target: T4, rat calcitonin receptor (Rattus norvegicus, UniProt P32214); assay: Assay (VIII) binding to the rat calcitonin receptor; conditions: membranes; read-out: rCT-R binding IC50
T4 construct: expressed in transfected cells; host or cells: BHK tk'ts 13 (transient, FuGENE 6)
T4 sequence (P32214 25-479 isoform P32214-2 limits assumed): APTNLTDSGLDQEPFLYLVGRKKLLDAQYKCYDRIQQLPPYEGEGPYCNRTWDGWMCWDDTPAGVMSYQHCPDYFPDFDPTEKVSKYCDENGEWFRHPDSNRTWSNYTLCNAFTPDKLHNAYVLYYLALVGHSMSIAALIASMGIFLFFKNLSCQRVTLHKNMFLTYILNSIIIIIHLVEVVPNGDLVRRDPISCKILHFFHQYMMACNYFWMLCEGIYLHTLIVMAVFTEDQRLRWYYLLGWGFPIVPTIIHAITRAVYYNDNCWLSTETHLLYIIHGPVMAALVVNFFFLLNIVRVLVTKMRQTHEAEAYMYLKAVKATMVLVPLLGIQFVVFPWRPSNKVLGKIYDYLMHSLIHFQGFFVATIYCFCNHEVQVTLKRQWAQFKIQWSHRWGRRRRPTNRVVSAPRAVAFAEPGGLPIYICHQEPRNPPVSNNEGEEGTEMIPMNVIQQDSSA
Outline: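 Competition binding on membranes from BHK tk'ts 13 cells transiently transfected with rat calcitonin receptor, otherwise run as the human receptor assay. Plates washed in cold HBSS, lysed in 0.1 M NaOH/1% SDS and scintillation-counted. IC50 from one-site competition fit as affinity measure.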

T2 sequence (O60896 24-148, one chain of several): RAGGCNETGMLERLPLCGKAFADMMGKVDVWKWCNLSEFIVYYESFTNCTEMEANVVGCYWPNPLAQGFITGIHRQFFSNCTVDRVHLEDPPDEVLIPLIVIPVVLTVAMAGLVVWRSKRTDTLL
T1 sequence (O60896 24-148, one chain of several): as above

SMILES	IC50 [1] [nM]	solubility at 18 h ([2]; bistrispropane buffer, pH 6.5) [µM]	solubility at 18 h ([2]; glycylglycine buffer, pH 3.0) [µM]	solubility at 18 h ([2]; glycylglycine buffer, pH 4.0) [µM]	solubility at 18 h ([2]; glycylglycine buffer, pH 5.0) [µM]	EC50 [3] [nM]	EC50 [4] [nM]	EC50 [5] [nM]	EC50 [6] [nM]	solubility at 18 h ([2]; bistrispropane buffer, pH 7.5) [µM]	solubility at 18 h ([2]; bistrispropane buffer, pH 6.0) [µM]	solubility at 18 h ([2]; bistrispropane buffer, pH 7.0) [µM]	solubility at 18 h ([2]; bistrispropane buffer, pH 8.0) [µM]	IC50 (rat calcitonin receptor) [nM]
CC(C)C[C@H](NC(=O)CNC(=O)[C@H](CO)NC(=O)[C@H](C)NC(=O)CCCCCCCCCCCCCCCCCCC(=O)O)C(=O)N[C@@H](CO)C(=O)N[C@H](C(=O)N[C@@H](C)C(=O)N[C@@H](C)C(=O)N[C@@H](CC(C)C)C(=O)NCC(=O)N[C@@H](CCCNC(=N)N)C(=O)N[C@@H](CC(C)C)C(=O)N[C@@H](CO)C(=O)N[C@@H](CCC(N)=O)C(=O)N[C@@H](CCC(=O)O)C(=O)N[C@@H](CC(C)C)C(=O)N[C@@H](Cc1c[nH]cn1)C(=O)N[C@@H](CCC(=O)O)C(=O)N[C@@H](CC(C)C)C(=O)N[C@@H](CCC(N)=O)C(=O)N[C@H](C(=O)N[C@@H](Cc1ccc(O)cc1)C(=O)N1CCC[C@H]1C(=O)N[C@@H](CCCNC(=N)N)C(=O)N[C@H](C(=O)N[C@@H](CCC(=O)O)C(=O)N[C@H](C(=O)NCC(=O)N[C@@H](CO)C(=O)NCC(=O)N[C@H](C(=O)N[C@@H](Cc1ccc(O)cc1)C(N)=O)[C@@H](C)O)[C@@H](C)O)[C@@H](C)O)[C@@H](C)O)[C@@H](C)O [compound 111, [N-terminal(C20 diacid), des1, 4G, 15Q, 21Q, 23Y, 30S, 31G, 32T, 33Y]mimylin] ({C20 diacid}-ASGLSTAALGRLSQELHELQTYPRTETGSGTY-NH2)	0.222	1 (≈ 3.72 µg/mL)	≥ 200	1 (≈ 3.72 µg/mL)	2 (≈ 7.44 µg/mL)	0.022	0.052	0.049	0.024					
CC(C)C[C@H](NC(=O)[C@H](C)NC(=O)[C@H](C)NC(=O)[C@@H](NC(=O)[C@H](CO)NC(=O)[C@H](CC(C)C)NC(=O)[C@H](CCCCNC(=O)CC[C@H](NC(=O)CCCCCCCCCCCCCCCCCCC(=O)O)C(=O)O)NC(=O)[C@H](CO)NC(=O)[C@H](C)N)[C@@H](C)O)C(=O)NCC(=O)N[C@@H](CCCNC(=N)N)C(=O)N[C@@H](CC(C)C)C(=O)N[C@@H](CO)C(=O)N[C@@H](C)C(=O)N[C@@H](CCC(=O)O)C(=O)N[C@@H](CC(C)C)C(=O)N[C@@H](Cc1c[nH]cn1)C(=O)N[C@@H](CCC(=O)O)C(=O)N[C@@H](CC(C)C)C(=O)N[C@@H](C)C(=O)N[C@H](C(=O)N[C@@H](CC(C)C)C(=O)N1CCC[C@H]1C(=O)N[C@@H](CCCNC(=N)N)C(=O)N[C@H](C(=O)N[C@@H](CCC(=O)O)C(=O)N[C@H](C(=O)NCC(=O)N[C@@H](CO)C(=O)NCC(=O)N[C@@H](CO)C(=O)N1CCC[C@H]1C(N)=O)[C@@H](C)O)[C@@H](C)O)[C@@H](C)O [compound 52, [des1, 4K(C20 diacid-gGlu), 30S, 31G]mimylin] (H-ASK([γGlu-C20 diacid])LSTAALGRLSAELHELATLPRTETGSGSP-NH2; N-terminus assumed)		≥ 200	≥ 200	≥ 200	≥ 200	0.039	0.074	0.03	0.034	≥ 200	≥ 200	≥ 200	≥ 200	0.114
CC(C)C[C@H](NC(=O)[C@H](CCC(=O)O)NC(=O)[C@H](Cc1c[nH]cn1)NC(=O)[C@H](CC(C)C)NC(=O)[C@H](CCC(=O)O)NC(=O)[C@H](C)NC(=O)[C@H](CO)NC(=O)[C@H](CC(C)C)NC(=O)[C@H](CCCNC(=N)N)NC(=O)CNC(=O)[C@H](CC(C)C)NC(=O)[C@@H](NC(=O)[C@H](C)NC(=O)[C@@H](NC(=O)[C@@H](NC(=O)[C@H](CC(C)C)NC(=O)[C@H](CCC(=O)O)NC(=O)[C@H](CO)NC(=O)[C@H](C)NC(=O)CC[C@H](NC(=O)CCCCCCCCCCCCCCCCC(=O)O)C(=O)O)[C@@H](C)O)[C@@H](C)O)C(C)C)C(=O)N[C@@H](C)C(=O)N[C@H](C(=O)N[C@@H](CC(C)C)C(=O)N1CCC[C@H]1C(=O)N[C@@H](CCCNC(=N)N)C(=O)N[C@H](C(=O)N[C@@H](CCC(=O)O)C(=O)N[C@H](C(=O)NCC(=O)N[C@@H](CO)C(=O)NCC(=O)N[C@@H](CO)C(=O)N1CCC[C@H]1C(N)=O)[C@@H](C)O)[C@@H](C)O)[C@@H](C)O [compound 85, [N-terminal(C18 diacid-gGlu), des1, 6T, 9V, 30S, 31G]mimylin] ({C18 diacid-γGlu}-ASELTTAVLGRLSAELHELATLPRTETGSGSP-NH2)	0.653	≥ 200	≥ 200	≥ 200	≥ 200	0.033	0.019	0.009	0.028	≥ 200	≥ 200	≥ 200	≥ 200	
